Measurements as given in ChEMBL document CHEMBL5108059, “Discovery of 2-Methyl-2-(4-(2-methyl-8-(1H-pyrrolo[2,3-b]pyridin-6-yl)-1H-naphtho[1,2-d]imidazol-1-yl)phenyl)propanenitrile as a Novel PI3K/mTOR Inhibitor with Enhanced Antitumor Efficacy In Vitro and In Vivo” (J Med Chem, 2022).

Assays:
[1] = Oral bioavailability in Sprague-Dawley rat at 10 mg/kg measured for 24 hrs by LC-MS/MS analysis; assay type: ADME, organism-based; settings: in vivo
HeLa [2] = test: Induction of apoptosis in human HeLa cells assessed as dead cells at 0.625 uM incubated for 36 hrs by Annexin V-FITC/PI staining based flow cytometric analysis (reference value: 0.44 %); assay type: functional
NCI-H446 = test: Antiproliferative activity against PTEN-null human NCI-H446 cells assessed as inhibition of cell growth incubated for 48 to 72 hrs by MTT assay; assay type: functional, cell-based
HeLa [3] = test: Induction of apoptosis in human HeLa cells assessed as early apoptotic cells at 2.5 uM incubated for 36 hrs by Annexin V-FITC/PI staining based flow cytometric analysis (reference value: 2.02 %); assay type: functional
HeLa [4] = test: Induction of apoptosis in human HeLa cells assessed as dead cells at 0.15625 uM incubated for 36 hrs by Annexin V-FITC/PI staining based flow cytometric analysis (reference value: 0.44 %); assay type: functional; settings: 0.1562 µM
HeLa [5] = test: Antitumor activity against human HeLa cells xenografted in BALB/c nude mouse assessed as tumor growth inhibition at 15 mg/kg, IG administered daily for 30 days and measured every 2 days relative to control; assay type: functional; settings: po, 720 h, time 30 day, read-out: TGI
HeLa [6] = test: Induction of apoptosis in human HeLa cells assessed as late apoptotic cells at 0.3125 uM incubated for 36 hrs by Annexin V-FITC/PI staining based flow cytometric analysis (reference value: 1.4 %); assay type: functional
HeLa [7] = test: Antitumor activity against human HeLa cells xenografted in BALB/c nude mouse assessed as tumor growth inhibition at 30 mg/kg, IG administered daily for 30 days and measured every 2 days relative to control; assay type: functional; settings: po, 720 h, time 30 day, read-out: TGI
HeLa [8] = test: Inhibition of colony formation in human HeLa cells assessed as reduction in colony forming ability at 0.625 uM incubated for 15 days by crystal violet staining based analysis; assay type: functional; settings: 360 h, time 15 day

Cc1nc2cnc3ccc(-c4cnc5[nH]ccc5c4)cc3c2n1-c1ccc(C(C)(C)C#N)nc1
bioavailability [1]: 76.8% | Activity (HeLa [2]): 2.75% | IC50 (NCI-H446): 970 nM | Activity (HeLa [3]): 27.18% | Activity (HeLa [4]): 0.4% | inhibition in vivo at 15 mg/kg (HeLa [5]): 60.8% | Activity (HeLa [6]): 3% | inhibition in vivo at 30 mg/kg (HeLa [7]): 73.5% | inhibition at 0.625 µM (HeLa [8]): 100%
